The record followed here is patent US7919077B2, “Pharmaceutical compositions comprising CCL2 and use of same for the treatment of inflammation” (Yeda Research and Development Co. Ltd., priority 2006, dated 2011).

One assay in a line: TNBS colitis mouse model. The assay is classed as in vivo, mice. As to conditions: dexamethasone i.p. daily. The method, then: TNBS colitis model and treatment with CCL2—TNBS colitis was induced as previously described [Ohkawara et al. (2002) Gastroenterology, 123:256]. Briefly, mice were anesthetized by i.p. injection (35 μl per mouse) of a mixture containing 85% ketamine and 15% xylazine (20 mg/ml). Next, 100 μl of TNBS [55% volume of 50% ethanol mixed with 45% volume of TNBS solution ([…]; Sigma-Aldrich)] was infused into the colonic lumen (about 3.5 cm of the anal verge) via 1 ml syringe attached to a feeding needle. Treated mice were weighted daily and visually inspected for clinical symptoms, such as rectal bleeding and diarrhea.
TNBS mice were divided into 6 groups. CCL2 groups (10 mice in each group) were injected i.p. daily with different CCL2 concentrations (30 ng, 60 ng or 180 ng) in 200 μl of PBS from day 0 (immediately after TNBS induction) to day 6. Control groups (10 mice in each group) were injected i.p. daily with 200 μl PBS alone. Additionally, 5 mice were injected i.p. daily with dexamethasone; and 1 mouse which was not treated and served as negative control for future histology and weight.
Macroscopic and histological assessment of colitis—An observer blind to the experimental procedure scored colitis for clinical manifestation of disease. The colon was macroscopically examined (×5 magnification) to evaluate the macroscopic lesions according to the Wallace criteria. The Wallace score ranks macroscopic colon lesions on a scale from 0 to 16 based on criteria reflecting inflammation, such as hyperemia, thickening of the bowel and the extent of ulceration. The colon was cut lengthwise and fixed in 4% paraformaldehyde for future histology.

In the next assay the test system is naïve T cells. Briefly: Cytoskeleton rearrangement (actin polymerization), naïve T cells. Conditions: CCL21 stimulation in presence of chemokine 0.1 ng/ml; FIG. 2e. The assay is classed as cell-based, mice. The method, then:
Cytoskeleton rearrangement—T cells were pre-incubated for 30 minutes in the presence or absence of CCL2 (0.1 ng/ml), and then stimulated with either CXCL12 (0.1 mg/ml PeproTech, Inc., Rocky Hill N.J.), SLC (CCL21, 0.4 mg/ml, PeproTech, Inc., Rocky Hill, N.J.), Rantes (0.1 mg/ml, R&D systems Minneapolis, Minn.), MIP-1β(0.1 mg/ml, R&D systems Minneapolis, Minn.) or Eotoxin (0.1 mg/ml R&D systems Minneapolis, Minn.) for 15 seconds. Cells were then immediately fixed with paraformaldehyde, permeabilized and their intracellular F-actin was stained with FITC-phalloidin (Sigma-Aldrich, St. Louis, Mo.), and then analyzed by flow cytometry to determine the state of their cytoskeleton, as previously described [Flaishon, L. F., et al., J. Biol. Chem. 276:46701 (2001)].

The test system of assay [1] is human T cells interacting with ICAM-1 (LFA-1). Briefly: Laminar flow adhesion assay on ICAM-1 with co-immobilized CCL21. In kind it is cell-based. Conditions: low dose chemokine pretreatment. The method, then:
(§1) Laminar flow adhesion assays—Purified VCAM-1 or ICAM-1-Fc (both from R&D Systems, Minneapolis, Minn.) were coated with or without CCL21 (R&D Systems) on polystyrene plates as previously described [Grabovsky et al., J Exp Med. (2000) 192:495-506; Sigal et al., J Immunol. (2000) 165:442-452]. The polystyrene plates were each assembled on the lower wall of the flow chamber as previously described [Feigelson et al., J Biol Chem. (2001) 276:13891-13901]. All flow experiments were conducted at 37° C. Cells were washed with cation-free H/H medium, resuspended in binding medium (H/H medium supplemented with 1 mM CaCl2 and 1 mM MgCl2) and perfused through the flow chamber at low shear stress (0.5-0.75 dyn/cm^2) for 2 minutes. Tethers were defined as transient or rolling if cells attached briefly (<2 seconds) to the substrate and as arrests if immediately arrested and remaining stationary for at least 5 seconds of continuous flow. Frequencies of adhesive categories within differently pretreated cells were determined as a percentage of cells flowing immediately over the substrates, as previously described [Grabovsky et al., supra]. To assess resistance to detachment over time, accumulated cells were subjected to a shear stress of 5 dyn/cm^2 for 5 minutes. At the indicated time points, the number of cells that remained bound was expressed relative to T cell population originally accumulated in the first 2 minute period of the assay. Over 90% of cellular tethers to VCAM-1 or ICAM-1 were blocked by pretreating cells with VLA-4 or LFA-1 blockers respectively.

For assay [2], the system named is human T cells interacting with VCAM-1 (VLA-4). The experiment in a line: Laminar flow adhesion assay on VCAM-1 with co-immobilized CCL21. The assay is classed as cell-based. Conditions: low dose chemokine pretreatment. On the procedure: as §1

For the molecule `C[C@@H]1C[C@H]2[C@@H]3CCC4=CC(=O)C=C[C@]4(C)[C@@]3(F)[C@@H](O)C[C@]2(C)[C@@]1(O)C(=O)CO` [dexamethasone, reference compound], in “TNBS colitis mouse model”, the “Colon length (cm)” value is 8.17 ± 0.76 cm. In addition, in “TNBS colitis mouse model” (3 mice), the “Diarrhea (# of mice)” value is 0 # of mice. This molecule also yielded a Colitis score in the assay “TNBS colitis mouse model” (Wallace score 0 to 16, mean±SEM) of 0.67 ± 0.58.

With “CXCL12: chemokine, chemoattractant for T cells; tested at low dose as comparator [reference compound]”, the “inhibitory effect of low levels of chemokine on actin polymerization of naïve T cells” value (“inhibitory effect” below) with naïve T cells is on record as “no inhibitory effect”. Further, in assay [1] (high shear stress 5 dyn/cm^2, FIG. 6b), the “post arrest adhesion strengthening on ICAM-1 (resistance to detachment)” value is “retained”. Besides, in assay [1] (shear stress 0.5 dyn/cm^2, FIG. 6a), the “LFA-1 activation by surface bound CCL21 (arrest on ICAM-1)” value is “retained”. Further, the “post arrest adhesion strengthening on VCAM-1 (resistance to detachment)” value in assay [2] (high shear stress 5 dyn/cm^2, FIG. 6d) is on record as “retained”. In addition, the “VLA-4 activation by surface bound CCL21 (arrest on VCAM-1)” value in assay [2] (shear stress 0.75 dyn/cm^2, FIG. 6c) was “retained”.

As to “Eotoxin: comparator chemokine (R&D systems) [reference compound]”, the “inhibitory effect” value with naïve T cells was “no inhibitory effect”.

B1: Rantes: comparator chemokine (R&D systems) (protein, UniProt P13501 24-91, looked up)
C-C motif chemokine 5: SPYSSDTTPCCFAYIARPLPRAHIKEYFYTSGKCSNPAVVFVTRKNRQVCANPEKKWVREYINSLEMS
With B1, in the assay on naïve T cells, the “inhibitory effect” value is reported as “no inhibitory effect”.

B2: Mip1β: comparator chemokine (R&D systems) (protein, UniProt P13236 24-92, looked up)
C-C motif chemokine 4: APMGSDPPTACCFSYTARKLPRNFVVDYYETSSLCSQPAVVFQTKRSKQVCADPSESWVQEYVYDLELN
Take B2: the “inhibitory effect” value with naïve T cells is given as “no inhibitory effect”.
